Results taken from publication PMC10017428, “Structure of VanS from vancomycin-resistant enterococci: A sensor kinase with weak ATP binding” (The Journal of Biological Chemistry, 2023).

What was measured:
VanSC CA domain [1] = molecular target: T1, VanSC CA domain (Enterococcus gallinarum, UniProt Q9KJT3); assay: biochemical
VanSA CA domain [2] = molecular target: T2, VanSA CA domain (Enterococcus faecium, UniProt Q06240); assay: biochemical
T2 construct: gene vanS

EnvZ CA domain = EnvZ CA domain (Escherichia coli, UniProt P0AEJ4); assay: biochemical
EnvZ CA domain, sequence (P0AEJ4 289-450): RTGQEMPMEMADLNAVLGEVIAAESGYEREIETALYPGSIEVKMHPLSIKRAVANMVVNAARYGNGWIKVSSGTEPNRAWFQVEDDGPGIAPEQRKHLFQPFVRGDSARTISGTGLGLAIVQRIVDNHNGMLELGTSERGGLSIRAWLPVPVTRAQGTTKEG

VanSC CA domain [3] = molecular target: T1, VanSC CA domain; assay: TNP-ATP displacement, fluorescence; type: binding; conditions: 50 mM Tris-Cl pH 7.5, 50 mM KCl, 5 mM MgCl2, 10 μM TNP-ATP; competitive
VanSA CA domain [4] = molecular target: T2, VanSA CA domain; assay: TNP-ATP displacement, fluorescence; type: binding; conditions: 50 mM Tris-Cl pH 7.5, 50 mM KCl, 5 mM MgCl2, 10 μM TNP-ATP; competitive

T2 sequence (Q06240 221-384): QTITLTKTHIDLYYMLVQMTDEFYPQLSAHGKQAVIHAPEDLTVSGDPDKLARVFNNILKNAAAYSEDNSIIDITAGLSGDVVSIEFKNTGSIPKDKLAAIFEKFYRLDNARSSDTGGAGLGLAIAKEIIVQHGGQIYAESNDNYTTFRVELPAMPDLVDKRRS
T1 sequence (Q9KJT3 208-361): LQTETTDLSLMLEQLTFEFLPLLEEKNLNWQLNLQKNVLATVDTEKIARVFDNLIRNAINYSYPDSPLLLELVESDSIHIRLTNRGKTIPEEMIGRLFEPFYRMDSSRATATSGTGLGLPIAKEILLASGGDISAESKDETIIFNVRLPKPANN

SMILES: Nc1ncnc2c1ncn2[C@@H]1O[C@H](COP(=O)(O)OP(=O)(O)OP(=O)(O)O)[C@@H](O)[C@H]1O [ATP]
- Kd (VanSC CA domain [1]): 3.128 ± 0.0004 mM
- Kd (VanSA CA domain [2]): 3.948 ± 0.001 mM
- Kd (EnvZ CA domain): 0.0833 ± 0.0002 mM

SMILES: Nc1nc2c(ncn2[C@@H]2O[C@H](COP(=O)(O)OP(=O)(O)OP(=O)(O)O)[C@@H](O)[C@H]2O)c(=O)[nH]1 [GTP]
- TNP-ATP displacement, fluorescence (VanSC CA domain [3]): GTP bound less tightly than ATP to both VanSA and VanSC
- TNP-ATP displacement, fluorescence (VanSA CA domain [4]): GTP bound less tightly than ATP to both VanSA and VanSC
